US12594276B2, “Inhibitors of human immunodeficiency virus replication” (ViiV Healthcare UK (No.5) Limited, priority 2024, dated 2026)

Legend:
[1] = Compound cytotoxicity, XTT-based colorimetric assay; type: cell-based; conditions: human; uninfected MT2 cells, day 4, XTT; read-out: CC50
Description: Compound cytotoxicity and the corresponding CC50 values were determined using the same protocol as described in the antiviral assay except that uninfected cells were used. Cytotoxicity was assessed on day 4 in uninfected MT2 cells by using an XTT (2,3-bis[2-Methoxy-4-nitro-5-sulfophenyl]-2H-tetrazolium-5-carboxyanilide inner salt)-based colorimetric assay (Sigma-Aldrich, St Louis, Mo).

[2] = tested on: recombinant NL4-3 virus (nef section replaced with Renilla luciferase gene) in MT-2 cells; experiment: HIV cell culture assay (antiviral activity, luciferase readout); type: cell-based; conditions: Renilla, NL43, MT-2 cells infected for 4-5 days with recombinant NL4-3 Renilla luciferase virus
Description: HIV cell culture assay—MT-2 cells, 293T cells and the proviral DNA clone of NL4-3 virus were obtained from the NIH AIDS Research and Reference Reagent Program. MT-2 cells were propagated in RPMI 1640 media supplemented with 10% heat inactivated fetal bovine serum (FBS), […]. The 293T cells were propagated in DMEM media supplemented with 10% heat inactivated FBS, […]. A recombinant NL4-3 proviral clone, in which a section of the nef gene was replaced with the Renilla luciferase gene, was used to make the reference virus used in these studies. The recombinant virus was prepared through transfection of the recombinant NL4-3 proviral clone into 293T cells using Transit-293 Transfection Reagent from Mirus Bio LLC (Madison, WI). Supernatant was harvested after 2-3 days and the amount of virus present was titered in MT-2 cells using luciferase enzyme activity as a marker by measuring luciferase enzyme activity. Luciferase was quantitated using the EnduRen Live Cell Substrate from Promega (Madison, WI). Antiviral activities of compounds toward the recombinant virus were quantified by measuring luciferase activity in MT-2 cells infected for 4-5 days with the recombinant virus in the presence of serial dilutions of the compound.
The 50% effective concentration (EC50) was calculated by using the exponential form of the median effect equation where (Fa)=1/[1+(ED50/drug conc.)m](Johnson V A, Byington R T. Infectivity Assay. In Techniques in HIV Research. ed. Aldovini A, Walker B D. 71-76. New York: Stockton Press. 1990). Curve fitting and analysis were performed with ActivityBase XE Runner software version 9.1.0.4 using model 203 (ID Business Solutions, LTD, Guildford, UK).

Row | Structure (SMILES) | CC50 at 4 days [1] | EC50 [2]
1 | Cc1cc(C2(F)CCC(F)(F)CC2)nc2nc([C@H](Cc3cc(F)cc(F)c3)NC(=O)Cn3nc(C(F)F)c4c3C(F)(F)[C@@H]3C[C@H]43)n(-c3ccc(Cl)c4c(NS(C)(=O)=O)nn(CCc5cccnc5)c34)c(=O)c12 (atropisomer, axis not shown; (P)) [Example 740, N-[(1S)-1-[(3P)-3-{4-chloro-3-methanesulfonamido-1-[2-(pyridin-3-yl)ethyl]-1H-indazol-7-yl}-5-methyl-4-oxo-7-(1,4,4-trifluorocyclohexyl)-3H,4H-pyrido[2,3-d]pyrimidin-2-yl]-2-(3,5-difluorophenyl)ethyl]-2-[(2S,4R)-9-(difluoromethyl)-5,5-difluoro-7,8-diazatricyclo[4.3.0.0^2,^4]nona-1(6),8-dien-7-yl]acetamide] | > 20 nM | 0.021 nM
2 | COCCNc1cc(C2CCC(F)(F)CC2)nc2nc([C@H](Cc3cc(F)cc(F)c3)NC(=O)Cn3nc(C(F)F)c4c3C(F)(F)[C@@H]3C[C@H]43)n(-c3ccc(Cl)c4c(NS(C)(=O)=O)nn(CCN5C[C@@H](C)O[C@@H](C)C5)c34)c(=O)c12 (atropisomer, axis not shown; (P)) [Example 418, N-[(1S)-1-[(3P)-3-(4-chloro-1-{2-[(2R,6S)-2,6-dimethylmorpholin-4-yl]ethyl}-3-methanesulfonamido-1H-indazol-7-yl)-7-(4,4-difluorocyclohexyl)-5-[(2-methoxyethyl)amino]-4-oxo-3H,4H-pyrido[2,3-d]pyrimidin-2-yl]-2-(3,5-difluorophenyl)ethyl]-2-[(2S,4R)-9-(difluoromethyl)-5,5-difluoro-7,8-diazatricyclo[4.3.0.0^2,^4]nona-1(6),8-dien-7-yl]acetamide] | > 20 nM | 0.019 nM
3 | COCCCn1nc(NS(C)(=O)=O)c2c(Cl)ccc(-n3c([C@H](Cc4cc(F)cc(F)c4)NC(=O)Cn4nc(C(F)F)c5c4C(F)(F)[C@@H]4C[C@H]54)nc4nc(C5CCC(F)(F)CC5)cc(CF)c4c3=O)c21 (atropisomer, axis not shown; (P)) [Example 449, N-[(1S)-1-[(3P)-3-[4-chloro-3-methanesulfonamido-1-(3-methoxypropyl)-1H-indazol-7-yl]-7-(4,4-difluorocyclohexyl)-5-(fluoromethyl)-4-oxo-3H,4H-pyrido[2,3-d]pyrimidin-2-yl]-2-(3,5-difluorophenyl)ethyl]-2-[(2S,4R)-9-(difluoromethyl)-5,5-difluoro-7,8-diazatricyclo[4.3.0.0^2,4]nona-1(6),8-dien-7-yl]acetamide] | > 20 nM | 0.009 nM
4 | Cc1cc(C2CCC(F)(F)CC2)nc2nc([C@H](Cc3cc(F)cc(F)c3)NC(=O)Cn3nc(C(F)F)c4c3C(F)(F)[C@@H]3C[C@H]43)n(-c3ccc(Cl)c4c(NS(C)(=O)=O)nn(CCN5CCOC(C)(C)C5)c34)c(=O)c12 (atropisomer, axis not shown; (P)) [Example 479, N-[(1S)-1-[(3P)-3-{4-chloro-1-[2-(2,2-dimethylmorpholin-4-yl)ethyl]-3-methanesulfonamido-1H-indazol-7-yl}-7-(4,4-difluorocyclohexyl)-5-methyl-4-oxo-3H,4H-pyrido[2,3-d]pyrimidin-2-yl]-2-(3,5-difluorophenyl)ethyl]-2-[(2S,4R)-9-(difluoromethyl)-5,5-difluoro-7,8-diazatricyclo[4.3.0.0^2,^4]nona-1(6),8-dien-7-yl]acetamide] | > 20 nM | 0.004 nM
5 | Cc1cc(C2CCC(F)(F)CC2)nc2nc([C@H](Cc3cc(F)cc(F)c3)NC(=O)Cn3nc(C4CC4)c4c3C[C@@H]3C[C@H]43)n(-c3ccc(Cl)c4c(NS(C)(=O)=O)nn(CCN5C[C@@H](C)O[C@@H](C)C5)c34)c(=O)c12 (atropisomer, axis not shown; (P)) [Example 230, N-[(1S)-1-[(3P)-3-(4-chloro-1-{2-[(2R,6S)-2,6-dimethylmorpholin-4-yl]ethyl}-3-methanesulfonamido-1H-indazol-7-yl)-7-(4,4-difluorocyclohexyl)-5-methyl-4-oxo-3H,4H-pyrido[2,3-d]pyrimidin-2-yl]-2-(3,5-difluorophenyl)ethyl]-2-[(2S,4S)-9-cyclopropyl-7,8-diazatricyclo[4.3.0.0^2,^4]nona-1(6),8-dien-7-yl]acetamide] | > 50 nM | 0.006 nM
6 | Cc1cc(C2(C)CCC(F)(F)CC2)nc2nc([C@H](Cc3cc(F)cc(F)c3)NC(=O)Cn3nc(C(F)F)c4c3C(F)(F)[C@@H]3C[C@H]43)n(-c3ccc(Cl)c4c(NS(C)(=O)=O)nn(CCN5C[C@@H](C)O[C@@H](C)C5)c34)c(=O)c12 (atropisomer, axis not shown; (P)) [Example 505, N-[(1S)-1-[(3P)-3-(4-chloro-1-{2-[(2R,6S)-2,6-dimethylmorpholin-4-yl]ethyl}-3-methanesulfonamido-1H-indazol-7-yl)-7-(4,4-difluoro-1-methylcyclohexyl)-5-methyl-4-oxo-3H,4H-pyrido[2,3-d]pyrimidin-2-yl]-2-(3,5-difluorophenyl)ethyl]-2-[(2S,4R)-9-(difluoromethyl)-5,5-difluoro-7,8-diazatricyclo[4.3.0.0^2,^4]nona-1(6),8-dien-7-yl]acetamide] | > 20 nM | 0.013 nM
7 | CS(=O)(=O)Nc1nn(CCN2CCC3(CC2)COC3)c2c(-n3c([C@H](Cc4cc(F)cc(F)c4)NC(=O)Cn4nc(C(F)F)c5c4C(F)(F)[C@@H]4C[C@H]54)nc4nc(C5CCC(F)(F)CC5)ccc4c3=O)ccc(Cl)c12 (atropisomer, axis not shown; (P)) [Example 170, N-[(1S)-1-[(3P)-3-[4-chloro-3-methanesulfonamido-1-(2-{2-oxa-7-azaspiro[3.5]nonan-7-yl}ethyl)-1H-indazol-7-yl]-7-(4,4-difluorocyclohexyl)-4-oxo-3H,4H-pyrido[2,3-d]pyrimidin-2-yl]-2-(3,5-difluorophenyl)ethyl]-2-[(2S,4R)-9-(difluoromethyl)-5,5-difluoro-7,8-diazatricyclo[4.3.0.0^2,^4]nona-1(6),8-dien-7-yl]acetamide] | > 50 nM | 0.032 nM
8 | COCCCn1nc(NS(C)(=O)=O)c2c(Cl)ccc(-n3c([C@H](Cc4cc(F)cc(F)c4)NC(=O)Cn4nc(C(F)F)c5c4C(F)(F)[C@@H]4C[C@H]54)nc4nc(C5CCC(F)(F)CC5)cc(CN5C[C@@H](F)[C@@H](F)C5)c4c3=O)c21 (atropisomer, axis not shown; (P)) [Example 530, N-[(1S)-1-[(3P)-3-[4-chloro-3-methanesulfonamido-1-(3-methoxypropyl)-1H-indazol-7-yl]-7-(4,4-difluorocyclohexyl)-5-{[(3R,4S)-3,4-difluoropyrrolidin-1-yl]methyl}-4-oxo-3H,4H-pyrido[2,3-d]pyrimidin-2-yl]-2-(3,5-difluorophenyl)ethyl]-2-[(2S,4R)-9-(difluoromethyl)-5,5-difluoro-7,8-diazatricyclo[4.3.0.0^2,^4]nona-1(6),8-dien-7-yl]acetamide] | > 20 nM | 0.008 nM
